# Laboratory results published in patent publication US5834487A, “Inhibition of 26S and 20S proteasome by indanones” (CV Therapeutics, priority 1996, dated 1998).
# Target: T1, 20S catalytic subunit of the proteasome (multicatalytic proteinase complex) (Bos taurus, UniProt Q32KL2)
# T1 construct: was purified to homogeneity from bovine brain according to published methods; from tissue; host or cells: bovine brain
# Assay: 20S proteasome chymotryptic activity, fluorogenic peptide cleavage
# Type: biochemical, bovine
# Conditions: 50 μM succinyl-leu-leu-val-tyr-7-amino-4-methyl coumarin, 15 minutes at 37° C, pH7.5
# Description: Compounds of this invention prepared according to the method of Example 1 were tested as follows. The 20S catalytic subunit of the proteasome (also known as the multicatalytic proteinase complex) was purified to homogeneity from bovine brain according to published methods (Wilk S. and Orlowski, M, 40 842 J. Neurochem (1983)). The chymotryptic activity of the complex is measured by the increase in fluorescence following cleavage of the substrate peptide succinyl-leucine-leucine-valine-tyrosine-7-amino-4-methyl coumarin. The standard in vitro assay consists of 2 μg 20S proteasome, 0.1-100 μg/ml proteasome inhibitor in 200 μl 50 mM HEPES, containing 0.1% sodium dodecyl sulphate, pH7.5. The proteolytic reaction is initiated by the addition of 50 μM fluorogenic peptide substrate and allowed to progress for 15 minutes at 37° C. The reaction is terminated by the addition of 100 μl of 100 mM acetate buffer, pH4.0. The rate of proteolysis is directly proportional to the amount of liberated aminomethylcoumarin which is measured by fluorescent spectroscopy (EX 370 nm, EM 430 nm).
row,IC50,Compound
1,1 µg/mL,COc1ccc2c(c1)C(CC(=O)NC(CC(C)C)C(=O)NC(CC(C)C)C(=O)N(Cc1ccccc1)Cc1ccccc1)CC2=O (mixture of isomers) [Compound 177]
2,> 10 µg/mL,COc1ccc2c(c1)C(CC(=O)NC(CC(C)C)C(=O)NC(CO)C(N)=O)CC2=O (mixture of isomers) [Compound 141]
3,> 10 µg/mL,COc1ccc2c(c1)C(CC(=O)NC(CC(C)C)C(=O)NC(CCC(N)=O)C(N)=O)CC2=O (mixture of isomers) [Compound 137]
4,> 10 µg/mL,COc1ccc2c(c1)C(CC(=O)NC(C(N)=O)c1ccccc1)CC2=O (mixture of isomers) [Compound 36]
5,> 10 µg/mL,COc1ccc(NC(=O)CC2CC(=O)c3ccc(OC)cc32)cc1 (centres unmarked) [Compound 121]
6,> 10 µg/mL,COc1ccc2c(c1)C(CC(=O)N[C@@H](CC(C)C)C(=O)N[C@@H](C(=O)NCC(N)=O)C(C)C)CC2=O (some centres unmarked) [Compound 90]
7,1 µg/mL,COc1ccc2c(c1)C(CC(=O)NC(CC(C)C)C(=O)NC(CC(C)C)C(N)=O)CC2=O (mixture of isomers) [Compound 2]
8,0.5 µg/mL,"COc1ccc2c(c1)C(CC(=O)N[C@@H](CC(C)C)C(=O)N[C@H](CC(C)C)C(=O)NCC(N)=O)CC2=O (single isomer, unassigned) [Compound 50]"
9,> 10 µg/mL,COc1ccc2c(c1)C(CC(=O)NC(CC(C)C)C(=O)NC(CC(C)C)C(=O)NC(C)C(N)=O)CC2=O (mixture of isomers) [Compound 125]
10,> 10 µg/mL,COc1ccc2c(c1)C(CC(=O)NC(CC(C)C)C(=O)NC(CCC(=O)O)C(N)=O)CC2=O (mixture of isomers) [Compound 133]
11,> 10 µg/mL,COc1ccc2c(c1)C(CC(=O)NC(CC(C)C)C(=O)NC(CCCNC(=N)N)C(N)=O)CC2=O (mixture of isomers) [Compound 129]
12,10 µg/mL,COc1ccc2c(c1)C(CC(=O)NC(CC(C)C)C(=O)NC(CC(C)C)C(=O)NCc1ccncc1)CC2=O (mixture of isomers) [Compound 192]
13,> 10 µg/mL,CCCCC(NC(=O)CC1CC(=O)c2ccc(OC)cc21)C(=O)NC(CC(C)C)C(=O)NCC(N)=O (mixture of isomers) [Compound 43]
14,> 10 µg/mL,COc1ccc2c(c1)C(CC(=O)NCc1ccccc1OC)CC2=O (centres unmarked) [Compound 107]
15,> 10 µg/mL,COc1ccc2c(c1)C(CC(=O)NCCCCCCN)CC2=O (centres unmarked) [Compound 150]
16,> 10 µg/mL,COc1ccc2c(c1)C(CC(=O)NC(CC(C)C)C(=O)NC(CC(C)C)C(=O)NC13CC4CC(CC(C4)C1)C3)CC2=O (mixture of isomers) [Compound 190]
17,> 10 µg/mL,COc1ccc2c(c1)C(CC(=O)Nc1ccc(Cl)c(Cl)c1)CC2=O (racemic) [Compound 157]
18,> 10 µg/mL,COc1ccc2c(c1)C(CC(=O)N(C(C)C)C(C)C)CC2=O (centres unmarked) [Compound 62]
19,> 10 µg/mL,COc1ccc(CNC(=O)CC2CC(=O)c3ccc(OC)cc32)cc1 (centres unmarked) [Compound 85]
20,> 10 µg/mL,COc1ccc2c(c1)C(CC(=O)N1CCC(O)C1)CC2=O (centres unmarked) [Compound 109]
21,> 10 µg/mL,COc1ccc2c(c1)C(CC(=O)NC1CCCC1)CC2=O (centres unmarked) [Compound 74]
22,> 10 µg/mL,COc1ccc2c(c1)C(CC(=O)NC(CC(C)C)C(=O)NC(CC(C)C)C(=O)O)CC2=O (mixture of isomers) [Compound 172]
23,> 10 µg/mL,CCCC(NC(=O)C(CC(C)C)NC(=O)CC1CC(=O)c2ccc(OC)cc21)C(N)=O (mixture of isomers) [Compound 139]
24,> 10 µg/mL,CCCC(NC(=O)CC1CC(=O)c2ccc(OC)cc21)C(=O)NC(CC(C)C)C(=O)NCC(N)=O (mixture of isomers) [Compound 44]

row,Compound,IC50
1,COc1ccc2c(c1)C(CC(=O)NCc1ccncc1)CC2=O (centres unmarked) [Compound 104],> 10 µg/mL
2,COc1ccc2c(c1)C(CC(=O)N(C)C)CC2=O (centres unmarked) [Compound 78],> 10 µg/mL
